From ChEMBL document CHEMBL1143399, “A small-molecule nitroimidazopyran drug candidate for the treatment of tuberculosis” (Nature, 2000)
≈ marks a conversion by molar mass, not a printed value. Calls of active or inactive are those of the source. The calls are words filed in the database; no cut-off is given here.

How the values were obtained:
[1] = tested on: Mycobacterium tuberculosis; experiment: Antimicrobial activity against log phase recombinant Mycobacterium tuberculosis H37Rv-lux with plasmid MV361 at 10 ug/ml incubated for 7 days assessed as bacterial count after 4 days; format: functional
[2] = tested on: Mycobacterium tuberculosis; experiment: Antimicrobial activity against log phase recombinant Mycobacterium tuberculosis H37Rv-lux with plasmid MV361 at 10 ug/ml incubated for 7 days assessed as bacterial count; format: functional
[3] = tested on: Mycobacterium tuberculosis; experiment: Antimycobacterial activity against pan-susceptible Mycobacterium tuberculosis TN3183; format: functional
[4] = tested on: Mycobacterium tuberculosis; experiment: Antimycobacterial activity against pan-susceptible Mycobacterium tuberculosis TN1040; format: functional
[5] = tested on: Mycobacterium tuberculosis; experiment: Antimycobacterial activity against pan-susceptible Mycobacterium tuberculosis TN1008; format: functional
[6] = tested on: Mycobacterium tuberculosis; experiment: Antimycobacterial activity against pan-susceptible Mycobacterium tuberculosis TN1051; format: functional
[7] = tested on: Mycobacterium tuberculosis; experiment: Antimycobacterial activity against pan-susceptible Mycobacterium tuberculosis TN913; format: functional
[8] = tested on: Mycobacterium tuberculosis; experiment: Antimycobacterial activity against pan-susceptible Mycobacterium tuberculosis TN2351; format: functional
[9] = tested on: Mycobacterium tuberculosis; experiment: Antimycobacterial activity against pan-susceptible Mycobacterium tuberculosis H37Rv; format: functional
[10] = tested on: Mycobacterium tuberculosis; experiment: Antimycobacterial activity against pan-susceptible Mycobacterium tuberculosis TN1082; format: functional
[11] = tested on: Mycobacterium tuberculosis; experiment: Antimycobacterial activity against pan-susceptible Mycobacterium tuberculosis TN1037; format: functional
[12] = tested on: Mycobacterium tuberculosis; experiment: Antimycobacterial activity against pan-susceptible Mycobacterium tuberculosis TN4259; format: functional
[13] = tested on: Mycobacterium tuberculosis; experiment: Antimycobacterial activity against pan-susceptible Mycobacterium tuberculosis TN2524; format: functional
[14] = tested on: Mycobacterium tuberculosis; experiment: Antimycobacterial activity against pan-susceptible Mycobacterium tuberculosis TN3979; format: functional
[15] = tested on: Mycobacterium tuberculosis; experiment: Antimycobacterial activity against Mycobacterium tuberculosis H37Rv with plasmid MH102 infected in BALB/c mouse assessed as reduction in mycobacterial burden in spleen at 25 mg/kg, po daily after 4 days of infection for 10 days relative to isoniazid; format: functional, organism-based; parameters: dose 25 mg/kg
[16] = tested on: Mycobacterium tuberculosis; experiment: Antimycobacterial activity against Mycobacterium tuberculosis clinical isolate IS6110 infected in mouse at 25 mg/kg, po; format: functional, organism-based; parameters: dose 25 mg/kg
Mus musculus [17] = experiment: Chronic toxicity in Mycobacterium tuberculosis H37Rv infected BALB/c mouse at >500 mg/kg, po for 28 days; format: organism-based; conditions: in vivo, 672 h
Mus musculus [18] = experiment: Acute toxicity in Mycobacterium tuberculosis H37Rv infected BALB/c mouse at >1000 mg/kg, po single dose; format: organism-based; conditions: in vivo
[19] = tested on: Mycobacterium tuberculosis; experiment: Antimycobacterial activity against Mycobacterium tuberculosis H37Rv with plasmid MH102 infected in BALB/c mouse assessed as reduction in mycobacterial burden in lung at 25 mg/kg, po daily after 4 days of infection for 10 days relative to isoniazid; format: functional, organism-based; parameters: dose 25 mg/kg
[20] = tested on: Mycobacterium tuberculosis; experiment: Antimycobacterial activity against Mycobacterium tuberculosis H37Rv ATCC 27294 infected in Hartley guinea pig assessed as reduction in mycobacterial burden in lung at 40 mg/kg, po daily after 30 days of infection for 30 days relative to isoniazid; format: functional, organism-based; parameters: dose 40 mg/kg
[21] = tested on: Mycobacterium tuberculosis; experiment: Antimycobacterial activity against Mycobacterium tuberculosis H37Rv with plasmid MH102 infected in BALB/c mouse assessed as reduction in mycobacterial burden in lung at 50 mg/kg, po daily after 4 days of infection for 7 to 60 days relative to isoniazid; format: functional, organism-based; parameters: dose 50 mg/kg
[22] = tested on: Mycobacterium tuberculosis; experiment: Antimycobacterial activity against Mycobacterium tuberculosis H37Rv ATCC 27294 infected in Hartley guinea pig assessed as reduction in mycobacterial burden in spleen at 40 mg/kg, po daily after 30 days of infection for 30 days relative to isoniazid; format: functional, organism-based; parameters: dose 40 mg/kg
[23] = tested on: Mycobacterium tuberculosis; experiment: Antimycobacterial activity against Mycobacterium tuberculosis H37Rv with plasmid MH102 infected in BALB/c mouse assessed as reduction in mycobacterial burden in lung at 100 mg/kg, po daily after 4 days of infection for 7 to 60 days relative to isoniazid; format: functional, organism-based; parameters: dose 100 mg/kg

Structure (SMILES) | log10cfu [1] | log10cfu [2] | MIC [3] [µg/mL] | MIC [4] [µg/mL] | MIC [5] [µg/mL] | MIC [6] [µg/mL] | MIC [7] [µg/mL] | MIC [8] [µg/mL] | MIC [9] [µg/mL] | MIC [10] [µg/mL] | MIC [11] [µg/mL] | MIC [12] [µg/mL] | MIC [13] [µg/mL] | MIC [14] [µg/mL] | other results
CCC1Cn2cc([N+](=O)[O-])nc2O1 (stereo unspecified) | 1.5 | 1.8 |  |  |  |  |  |  |  |  |  |  |  |  | 
NNC(=O)c1ccncc1 [ISONIAZID] | 1 | 1.4 | 0.03 (≈ 0.219 µM) | 0.03 (≈ 0.219 µM) | 0.06 (≈ 0.438 µM) | 0.03 (≈ 0.219 µM) | 0.03 (≈ 0.219 µM) | 0.06 (≈ 0.438 µM) | 0.03 (≈ 0.219 µM) | 0.03 (≈ 0.219 µM) | 0.03 (≈ 0.219 µM) | 0.03 (≈ 0.219 µM) | 0.06 (≈ 0.438 µM) | 0.06 (≈ 0.438 µM) | 
Cc1ncc([N+](=O)[O-])n1CCO [METRONIDAZOLE] | 3.2 | 2.8 |  |  |  |  |  |  |  |  |  |  |  |  | 
O=[N+]([O-])c1cn2c(n1)OC[C@@H](OCc1ccc(OC(F)(F)F)cc1)C2 [PRETOMANID] | 3.1 | 3.5 | 0.015 (≈ 0.0418 µM) | 0.13 (≈ 0.362 µM) | 0.06 (≈ 0.167 µM) | 0.06 (≈ 0.167 µM) | 0.06 (≈ 0.167 µM) | 0.06 (≈ 0.167 µM) | 0.13 (≈ 0.362 µM) | 0.06 (≈ 0.167 µM) | 0.06 (≈ 0.167 µM) | 0.06 (≈ 0.167 µM) | 0.25 (≈ 0.696 µM) | 0.13 (≈ 0.362 µM) | Activity [15]: Active; Activity [16]: Active; Activity (Mus musculus [17]): Toxic; Activity (Mus musculus [18]): Toxic; Activity [19]: Active; Activity [20]: Active; Activity [21]: Active; Activity [22]: Active; Activity [23]: Active
